Data reported in the supplement of paper PMC12463676, “Small-molecule dissolution of stress granules by redox modulation benefits ALS models” (Nature Chemical Biology, 2025).

Legend:
[1] = compound: NC(=O)CCCCC1CCSS1 [lipoamide]; assay: thermal stability z-score vs DMSO; higher = more thermally stabilized by treatment; details: HeLa, lipoamide concentration 100 µM
Method: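 Cellular thermal proteome profiling in HeLa cells. Cells were treated with 100 µM lipoamide for 1 h, with or without 1 mM arsenate for a further 1 h, then heated to ten temperatures (37-66.3 °C), and soluble protein was quantified by TMT mass spectrometry relative to 0.1% DMSO controls. The thermal stability score (sum of log2 fold changes minus the abundance score) was transformed to a z-score; mean of n = 3 experiments.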

[2] = compound: O=[As]([O-])(O)O.[K+] [potassium arsenate]; assay: as above; details: HeLa; arsenate concentration 1 mM
Method: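 Cellular thermal proteome profiling in HeLa cells treated with 1 mM arsenate for 1 h (DMSO pretreatment), heated to ten temperatures (37-66.3 °C). Soluble protein was quantified by TMT mass spectrometry relative to DMSO controls; the thermal stability score was transformed to a z-score; mean of n = 3 experiments.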

[3] = arsenate co-treatment: 1 mM arsenate 1 h
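Further: each temperature applied for 3 min, abundance score taken as mean log2 fold change at the two lowest temperatures, z-score obtained by mean subtraction and division by SD.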

Chain of UniProt Q9H999 (Q9H999 whole entry, looked up): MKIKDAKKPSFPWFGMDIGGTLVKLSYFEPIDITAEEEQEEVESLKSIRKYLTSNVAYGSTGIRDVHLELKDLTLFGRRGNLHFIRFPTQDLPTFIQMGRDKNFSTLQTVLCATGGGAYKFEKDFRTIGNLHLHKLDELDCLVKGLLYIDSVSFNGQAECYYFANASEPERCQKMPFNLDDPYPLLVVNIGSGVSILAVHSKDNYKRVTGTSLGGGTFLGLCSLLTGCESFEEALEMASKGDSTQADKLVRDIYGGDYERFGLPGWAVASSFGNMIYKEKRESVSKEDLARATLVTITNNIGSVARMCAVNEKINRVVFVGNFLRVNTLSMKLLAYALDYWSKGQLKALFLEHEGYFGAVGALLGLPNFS
Chain of UniProt P42858 (P42858 whole entry): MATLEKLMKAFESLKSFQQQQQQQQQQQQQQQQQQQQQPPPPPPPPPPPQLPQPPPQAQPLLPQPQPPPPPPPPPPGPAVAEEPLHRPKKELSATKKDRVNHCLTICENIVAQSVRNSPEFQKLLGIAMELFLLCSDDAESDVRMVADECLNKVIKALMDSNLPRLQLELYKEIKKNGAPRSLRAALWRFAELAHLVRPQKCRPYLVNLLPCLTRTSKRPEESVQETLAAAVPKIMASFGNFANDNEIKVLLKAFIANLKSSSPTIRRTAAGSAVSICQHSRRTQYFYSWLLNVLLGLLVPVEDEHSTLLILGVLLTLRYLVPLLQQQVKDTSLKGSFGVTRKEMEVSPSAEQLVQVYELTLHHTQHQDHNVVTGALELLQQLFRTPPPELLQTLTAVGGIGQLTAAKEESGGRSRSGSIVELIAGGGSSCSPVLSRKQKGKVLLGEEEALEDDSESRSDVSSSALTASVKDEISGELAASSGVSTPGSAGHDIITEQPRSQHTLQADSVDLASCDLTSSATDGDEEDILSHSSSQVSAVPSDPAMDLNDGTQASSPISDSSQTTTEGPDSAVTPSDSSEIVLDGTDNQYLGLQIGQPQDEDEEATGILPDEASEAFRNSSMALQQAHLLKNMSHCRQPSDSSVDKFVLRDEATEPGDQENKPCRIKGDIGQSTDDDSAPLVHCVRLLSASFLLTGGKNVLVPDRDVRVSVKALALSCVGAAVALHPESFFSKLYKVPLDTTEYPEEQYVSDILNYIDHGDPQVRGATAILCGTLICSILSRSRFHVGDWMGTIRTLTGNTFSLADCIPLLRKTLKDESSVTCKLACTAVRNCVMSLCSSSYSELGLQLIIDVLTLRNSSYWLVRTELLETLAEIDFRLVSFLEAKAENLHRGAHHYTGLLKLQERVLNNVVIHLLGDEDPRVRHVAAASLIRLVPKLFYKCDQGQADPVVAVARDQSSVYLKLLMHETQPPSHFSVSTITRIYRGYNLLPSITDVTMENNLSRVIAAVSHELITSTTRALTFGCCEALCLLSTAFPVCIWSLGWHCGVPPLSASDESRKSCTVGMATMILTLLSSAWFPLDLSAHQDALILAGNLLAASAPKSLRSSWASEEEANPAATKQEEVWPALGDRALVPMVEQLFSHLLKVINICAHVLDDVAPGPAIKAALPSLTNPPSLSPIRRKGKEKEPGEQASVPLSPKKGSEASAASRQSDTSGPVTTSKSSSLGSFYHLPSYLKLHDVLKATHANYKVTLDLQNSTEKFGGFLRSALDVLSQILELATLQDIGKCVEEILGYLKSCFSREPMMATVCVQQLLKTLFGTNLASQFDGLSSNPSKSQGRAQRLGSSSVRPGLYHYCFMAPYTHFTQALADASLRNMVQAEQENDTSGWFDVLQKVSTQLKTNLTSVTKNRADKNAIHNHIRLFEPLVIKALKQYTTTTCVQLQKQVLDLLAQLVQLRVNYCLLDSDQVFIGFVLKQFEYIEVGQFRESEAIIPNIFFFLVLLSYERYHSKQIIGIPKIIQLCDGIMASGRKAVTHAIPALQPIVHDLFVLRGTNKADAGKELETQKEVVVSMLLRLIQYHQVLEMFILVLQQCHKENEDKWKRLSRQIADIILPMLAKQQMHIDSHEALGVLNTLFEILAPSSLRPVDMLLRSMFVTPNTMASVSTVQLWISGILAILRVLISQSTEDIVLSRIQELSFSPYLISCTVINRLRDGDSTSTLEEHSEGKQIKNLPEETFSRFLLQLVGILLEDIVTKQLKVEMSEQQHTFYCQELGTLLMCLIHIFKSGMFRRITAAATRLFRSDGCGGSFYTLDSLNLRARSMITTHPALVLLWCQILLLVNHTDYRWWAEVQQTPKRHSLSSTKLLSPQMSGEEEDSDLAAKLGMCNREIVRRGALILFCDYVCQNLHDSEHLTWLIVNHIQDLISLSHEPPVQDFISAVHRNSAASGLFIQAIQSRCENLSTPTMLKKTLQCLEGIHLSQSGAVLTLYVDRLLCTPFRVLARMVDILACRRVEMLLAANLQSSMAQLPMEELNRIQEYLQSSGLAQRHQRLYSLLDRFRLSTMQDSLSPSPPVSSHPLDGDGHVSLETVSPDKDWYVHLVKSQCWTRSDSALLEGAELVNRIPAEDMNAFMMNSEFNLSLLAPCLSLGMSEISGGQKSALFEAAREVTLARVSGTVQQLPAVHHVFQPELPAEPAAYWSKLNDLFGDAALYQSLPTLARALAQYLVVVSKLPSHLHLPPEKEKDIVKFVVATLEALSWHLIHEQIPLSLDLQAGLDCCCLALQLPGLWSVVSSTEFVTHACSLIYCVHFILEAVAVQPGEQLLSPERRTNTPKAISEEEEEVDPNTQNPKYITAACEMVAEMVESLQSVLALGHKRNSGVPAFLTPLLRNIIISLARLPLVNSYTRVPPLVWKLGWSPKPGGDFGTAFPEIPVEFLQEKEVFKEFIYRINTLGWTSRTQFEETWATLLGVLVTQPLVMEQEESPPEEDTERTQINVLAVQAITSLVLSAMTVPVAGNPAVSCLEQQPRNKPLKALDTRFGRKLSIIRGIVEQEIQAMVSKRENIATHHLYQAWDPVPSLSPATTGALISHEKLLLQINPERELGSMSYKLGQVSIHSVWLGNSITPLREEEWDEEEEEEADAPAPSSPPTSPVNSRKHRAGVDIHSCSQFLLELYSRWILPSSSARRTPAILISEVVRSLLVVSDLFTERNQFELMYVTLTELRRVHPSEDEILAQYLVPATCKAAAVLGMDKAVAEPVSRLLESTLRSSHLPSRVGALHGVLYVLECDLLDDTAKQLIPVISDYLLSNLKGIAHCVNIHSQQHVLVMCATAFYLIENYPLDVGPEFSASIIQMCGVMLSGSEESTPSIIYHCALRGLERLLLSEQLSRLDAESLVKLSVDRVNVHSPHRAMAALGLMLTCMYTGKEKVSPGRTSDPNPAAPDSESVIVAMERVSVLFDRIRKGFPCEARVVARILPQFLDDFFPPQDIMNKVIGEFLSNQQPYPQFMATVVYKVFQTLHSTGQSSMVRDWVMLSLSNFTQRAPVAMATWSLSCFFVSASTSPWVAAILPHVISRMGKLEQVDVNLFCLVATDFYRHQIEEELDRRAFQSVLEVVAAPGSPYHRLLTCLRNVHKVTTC
Chain of UniProt Q13769 (Q13769 whole entry): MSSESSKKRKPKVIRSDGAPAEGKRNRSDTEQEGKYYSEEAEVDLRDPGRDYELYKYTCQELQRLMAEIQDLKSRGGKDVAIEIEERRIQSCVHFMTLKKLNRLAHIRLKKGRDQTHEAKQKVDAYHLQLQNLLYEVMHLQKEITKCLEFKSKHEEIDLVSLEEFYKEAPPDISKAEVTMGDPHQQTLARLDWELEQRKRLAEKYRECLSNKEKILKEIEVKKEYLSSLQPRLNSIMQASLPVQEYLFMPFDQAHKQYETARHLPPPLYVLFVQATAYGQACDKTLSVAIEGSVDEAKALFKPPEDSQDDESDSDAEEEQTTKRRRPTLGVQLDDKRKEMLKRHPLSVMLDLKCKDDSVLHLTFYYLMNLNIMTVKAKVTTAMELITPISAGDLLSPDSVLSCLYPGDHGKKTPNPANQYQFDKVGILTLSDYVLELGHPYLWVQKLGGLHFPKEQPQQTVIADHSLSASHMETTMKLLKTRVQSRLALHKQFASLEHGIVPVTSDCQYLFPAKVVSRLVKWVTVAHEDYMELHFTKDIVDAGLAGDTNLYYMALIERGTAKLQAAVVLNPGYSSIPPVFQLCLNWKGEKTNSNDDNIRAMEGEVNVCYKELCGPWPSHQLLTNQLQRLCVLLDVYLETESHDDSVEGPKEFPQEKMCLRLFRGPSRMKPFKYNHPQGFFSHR
Chain of UniProt Q8N490 (Q8N490 whole entry): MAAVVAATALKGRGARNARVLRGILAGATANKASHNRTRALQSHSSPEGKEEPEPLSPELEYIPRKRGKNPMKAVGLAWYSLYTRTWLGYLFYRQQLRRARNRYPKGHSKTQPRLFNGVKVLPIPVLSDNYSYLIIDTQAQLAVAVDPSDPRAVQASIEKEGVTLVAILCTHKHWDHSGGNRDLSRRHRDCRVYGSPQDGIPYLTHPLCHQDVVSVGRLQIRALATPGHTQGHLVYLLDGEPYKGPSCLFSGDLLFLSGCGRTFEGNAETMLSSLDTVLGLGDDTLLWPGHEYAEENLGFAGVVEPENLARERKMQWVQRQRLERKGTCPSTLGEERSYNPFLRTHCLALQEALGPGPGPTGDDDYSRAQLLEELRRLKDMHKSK
Chain of UniProt P29558 (P29558 whole entry): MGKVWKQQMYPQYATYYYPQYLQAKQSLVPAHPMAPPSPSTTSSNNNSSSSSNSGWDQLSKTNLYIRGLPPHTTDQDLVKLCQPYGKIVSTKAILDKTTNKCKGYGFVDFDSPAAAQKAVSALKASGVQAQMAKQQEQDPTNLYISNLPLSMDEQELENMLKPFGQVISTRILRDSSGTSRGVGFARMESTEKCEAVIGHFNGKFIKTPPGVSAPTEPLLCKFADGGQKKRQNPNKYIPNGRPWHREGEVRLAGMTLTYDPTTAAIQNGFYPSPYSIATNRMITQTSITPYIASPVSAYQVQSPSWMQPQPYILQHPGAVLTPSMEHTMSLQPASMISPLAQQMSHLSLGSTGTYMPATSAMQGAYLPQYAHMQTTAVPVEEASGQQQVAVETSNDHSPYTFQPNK

Target	thermal stability z-score [1, 3]	thermal stability z-score ([1]; arsenate co-treatment: none)	thermal stability z-score [2]
NUP155 (UniProt O75694)	-0.814	-0.769	0.275
ACO2 (UniProt Q99798)	-0.488	-0.402	-1.08
TIMM23 (UniProt O14925)	0.248	-0.124	0.0795
RUSC1 (UniProt Q9BVN2)	0.0753	0.00504	-0.0614
RTKN (UniProt Q9BST9)	-0.183	-0.084	-0.395
PIK3R3 (UniProt Q92569)	0.191	-0.186	0.0593
FOXK1 (UniProt P85037)	0.345	-0.0499	1.86
PIN1 (UniProt Q13526)	0.355	0.305	0.757
BCAP31 (UniProt P51572)	0.0788	0.099	-0.144
GBE1 (UniProt Q04446)	-0.395	0.344	-0.956
SSBP1 (UniProt Q04837)	1.55	0.76	1.94
STX7 (UniProt O15400)	-0.0553	0.417	0.507
KCNK1 (UniProt O00180)	-1.31	0.686	-1.18
UBR4 (UniProt Q5T4S7)	-0.162	-0.16	0.242
RPS23 (UniProt P62266)	-0.0441	0.207	-0.0437
LZTFL1 (UniProt Q9NQ48)	0.0385	0.0985	-0.312
FA2H (UniProt Q7L5A8)	-0.355	0.132	-0.327
SLC31A1 (UniProt O15431)	0.126	0.215	0.321
SMARCAL1 (UniProt Q9NZC9)	0.0881	-0.0213	-0.0552
GNL2 (UniProt Q13823)	-0.195	-0.0312	-1.8
ORC2 (UniProt Q13416)	0.0753	0.0589	0.0824
RAB4A (UniProt P20338)	0.387	0.311	0.408
PRKD2 (UniProt Q9BZL6)	-0.0965	-0.0785	-0.232
XRCC6 (UniProt P12956)	-0.75	0.0871	-0.634
CHM (UniProt P24386)	0.191	0.152	-0.22
GNL3 (UniProt Q9BVP2)	-0.0335	0.0515	-0.437
PANK3 (UniProt Q9H999)	1.22	0.571	0.672
LPIN1 (UniProt Q14693)	-0.429	-0.906	-1.07

Target	thermal stability z-score [1, 3]	thermal stability z-score ([1]; arsenate co-treatment: none)	thermal stability z-score [2]
STRN3 (UniProt Q13033)	0.231	0.318	0.326
HTT (UniProt P42858)	0.301	-0.0612	0.319
MFAP1 (UniProt P55081)	0.755	0.245	1.73
PNKD (UniProt Q8N490)	0.175	0.758	0.929
ACLY (UniProt P53396)	0.0389	-0.136	-0.944
NFIB (UniProt O00712)	-1.17	-0.437	-0.0229
TAOK3 (UniProt Q9H2K8)	0.238	0.142	0.0629
SLC30A1 (UniProt Q9Y6M5)	0.17	0.0172	-0.906
LMNB2 (UniProt Q03252)	0.686	0.0237	0.839
GATAD2A (UniProt Q86YP4)	-0.0451	-0.00448	-0.412
TMEM259 (UniProt Q4ZIN3)	-0.193	-0.832	0.701
THOC5 (UniProt Q13769)	0.945	0.187	0.536
TERF2 (UniProt Q15554)	-0.0516	-0.042	0.1
NDUFS3 (UniProt O75489)	-0.384	0.139	-0.466
TDP2 (UniProt O95551)	0.0323	-0.0541	0.242
COPG2 (UniProt Q9UBF2)	-0.16	-0.253	0.0479
KLHL11 (UniProt Q9NVR0)	0.651	-0.0811	-0.421
RBSN (UniProt Q9H1K0)	0.0643	0.16	-0.113
ISG15 (UniProt P05161)	0.471	0.327	0.355
EIF2B5 (UniProt Q13144)	-0.392	0.253	0.878
TNS1 (UniProt Q9HBL0)	-0.0135	-0.0322	-0.162
GTF2I (UniProt P78347)	-0.117	0.0929	-0.472
ZNF217 (UniProt O75362)	-0.058	0.343	-0.589
USP48 (UniProt Q86UV5)	-0.179	-0.137	-0.669
RBMS1 (UniProt P29558)	-0.643	0.176	-0.265
ILF2 (UniProt Q12905)	0.0392	0.153	-1.96
ICT1 (UniProt Q14197)	-0.321	-0.282	-0.225
